Reference: patent US20190330224A1, “ACC INHIBITORS AND USES THEREOF” (Gilead Apollo, LLC, priority 2015, published 2019)
Converted amounts (≈) assume the structure as drawn.

Tests used:
C. krusei ATCC 6258 = assay: Anti-Fungal Activity Assay (broth microtiter MIC), C. krusei; assay type: cell-based, Candida krusei; settings: Pichia kudriavzevii, ATCC6258, 48 h, 3 replicates; MIC recorded at 48 h; read-out: MIC C. krusei ATCC 6258
Outline: (§1)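 MIC by visual comparison with growth control, read at 48 h (soraphen also at 24 h). Inoculum: colonies from overnight Sabouraud dextrose agar plates at 35° C, suspended in RPMI 1640+MOPS, density from standard curves. Microtiter broth dilution per CLSI M27-A3; compounds from 1 mg/mL DMSO stocks.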

Fungal ACC2 = Fungal ACC2 (UniProt Q00955); settings: read-out: Fungal ACC2 (IC50, in vitro ACC2 inhibition)
Human ACC2 = Human ACC2 (Homo sapiens, UniProt O00763); assay: In vitro ACC2 inhibition assay (ADP-Glo), human ACC2; assay type: biochemical; settings: 5 nM ACC2, 20 μM ATP, 20 μM acetyl-CoA
[1] = test system: C. parapsilosis ATCC 22019; assay: Anti-Fungal Activity Assay (broth microtiter MIC), C. parapsilosis; assay type: cell-based, Candida parapsilosis; settings: Lodderomyces parapsilosis, ATCC22019, 48 h, 3 replicates; MIC recorded at 48 h; read-out: MIC C. parapsilosis ATCC 22019
Outline: as §1

C. albicans ATCC 90028 = assay: Anti-Fungal Activity Assay (broth microtiter MIC), C. albicans; assay type: cell-based, Candida albicans; settings: Candida albicans, ATCC90028, 48 h, 3 replicates; MIC recorded at 48 h; read-out: MIC C. albicans ATCC 90028
Outline: as §1

Chain of Human ACC2 (O00763 whole entry): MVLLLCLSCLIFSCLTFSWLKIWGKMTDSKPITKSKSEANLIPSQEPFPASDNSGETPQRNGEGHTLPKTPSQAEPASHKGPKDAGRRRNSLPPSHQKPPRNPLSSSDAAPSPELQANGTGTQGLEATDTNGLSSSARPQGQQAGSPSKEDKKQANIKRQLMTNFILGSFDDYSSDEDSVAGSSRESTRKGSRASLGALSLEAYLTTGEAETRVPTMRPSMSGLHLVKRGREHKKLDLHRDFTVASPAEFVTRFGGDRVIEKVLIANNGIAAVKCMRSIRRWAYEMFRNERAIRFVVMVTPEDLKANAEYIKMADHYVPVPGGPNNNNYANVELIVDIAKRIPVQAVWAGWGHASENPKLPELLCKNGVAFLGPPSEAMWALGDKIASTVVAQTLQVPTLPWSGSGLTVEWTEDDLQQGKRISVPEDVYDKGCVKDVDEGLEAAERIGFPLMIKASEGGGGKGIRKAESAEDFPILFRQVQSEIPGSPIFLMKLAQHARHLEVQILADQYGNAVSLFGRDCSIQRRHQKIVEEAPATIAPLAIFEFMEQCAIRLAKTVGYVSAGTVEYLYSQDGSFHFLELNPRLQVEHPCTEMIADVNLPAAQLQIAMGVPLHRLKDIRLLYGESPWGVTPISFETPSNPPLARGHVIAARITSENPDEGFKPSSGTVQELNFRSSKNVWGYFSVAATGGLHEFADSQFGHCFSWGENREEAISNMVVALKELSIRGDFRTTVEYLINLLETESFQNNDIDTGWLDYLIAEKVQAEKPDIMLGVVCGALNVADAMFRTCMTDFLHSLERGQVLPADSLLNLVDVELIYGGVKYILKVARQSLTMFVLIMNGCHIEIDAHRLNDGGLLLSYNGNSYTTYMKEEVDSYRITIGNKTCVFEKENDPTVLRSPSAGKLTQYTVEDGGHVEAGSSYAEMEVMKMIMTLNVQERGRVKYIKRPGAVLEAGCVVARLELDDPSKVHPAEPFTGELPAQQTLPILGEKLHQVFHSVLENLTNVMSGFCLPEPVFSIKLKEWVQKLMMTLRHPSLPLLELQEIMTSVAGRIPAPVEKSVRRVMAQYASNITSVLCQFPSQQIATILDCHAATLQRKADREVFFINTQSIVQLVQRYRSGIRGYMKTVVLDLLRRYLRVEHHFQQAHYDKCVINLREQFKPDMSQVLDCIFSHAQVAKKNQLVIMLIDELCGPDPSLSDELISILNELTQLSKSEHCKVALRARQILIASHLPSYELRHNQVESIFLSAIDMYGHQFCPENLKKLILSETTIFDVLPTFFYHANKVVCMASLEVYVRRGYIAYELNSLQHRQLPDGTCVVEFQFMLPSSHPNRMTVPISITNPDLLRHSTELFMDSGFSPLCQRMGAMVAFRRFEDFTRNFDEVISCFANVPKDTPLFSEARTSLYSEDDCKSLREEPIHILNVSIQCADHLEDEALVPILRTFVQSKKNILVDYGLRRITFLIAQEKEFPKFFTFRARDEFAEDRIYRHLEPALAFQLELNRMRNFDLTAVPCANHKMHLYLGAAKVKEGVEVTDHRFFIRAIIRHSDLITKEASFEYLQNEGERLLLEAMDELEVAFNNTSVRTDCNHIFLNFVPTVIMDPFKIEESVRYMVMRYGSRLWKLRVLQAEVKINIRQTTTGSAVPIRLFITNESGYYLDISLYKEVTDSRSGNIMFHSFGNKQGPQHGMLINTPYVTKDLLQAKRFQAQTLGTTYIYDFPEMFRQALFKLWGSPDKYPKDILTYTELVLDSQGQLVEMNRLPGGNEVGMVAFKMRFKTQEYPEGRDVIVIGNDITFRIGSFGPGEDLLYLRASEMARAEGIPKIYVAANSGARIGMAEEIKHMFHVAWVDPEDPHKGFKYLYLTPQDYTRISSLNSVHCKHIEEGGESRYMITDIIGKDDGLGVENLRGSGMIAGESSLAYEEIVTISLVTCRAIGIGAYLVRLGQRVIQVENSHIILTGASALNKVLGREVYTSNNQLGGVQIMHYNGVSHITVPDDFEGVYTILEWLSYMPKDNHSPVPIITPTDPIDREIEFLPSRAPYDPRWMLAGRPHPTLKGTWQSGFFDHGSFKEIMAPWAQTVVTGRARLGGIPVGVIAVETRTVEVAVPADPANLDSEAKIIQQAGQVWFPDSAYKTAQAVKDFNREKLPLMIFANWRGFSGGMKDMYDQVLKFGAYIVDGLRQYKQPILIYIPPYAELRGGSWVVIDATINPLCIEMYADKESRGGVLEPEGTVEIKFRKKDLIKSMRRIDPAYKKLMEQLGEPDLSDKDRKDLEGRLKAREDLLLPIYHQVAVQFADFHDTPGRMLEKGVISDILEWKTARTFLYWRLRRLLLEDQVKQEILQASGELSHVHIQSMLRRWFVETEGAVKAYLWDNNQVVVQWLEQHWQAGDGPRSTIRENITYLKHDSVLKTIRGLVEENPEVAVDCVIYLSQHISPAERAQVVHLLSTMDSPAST
Chain of Fungal ACC2 (Q00955 whole entry): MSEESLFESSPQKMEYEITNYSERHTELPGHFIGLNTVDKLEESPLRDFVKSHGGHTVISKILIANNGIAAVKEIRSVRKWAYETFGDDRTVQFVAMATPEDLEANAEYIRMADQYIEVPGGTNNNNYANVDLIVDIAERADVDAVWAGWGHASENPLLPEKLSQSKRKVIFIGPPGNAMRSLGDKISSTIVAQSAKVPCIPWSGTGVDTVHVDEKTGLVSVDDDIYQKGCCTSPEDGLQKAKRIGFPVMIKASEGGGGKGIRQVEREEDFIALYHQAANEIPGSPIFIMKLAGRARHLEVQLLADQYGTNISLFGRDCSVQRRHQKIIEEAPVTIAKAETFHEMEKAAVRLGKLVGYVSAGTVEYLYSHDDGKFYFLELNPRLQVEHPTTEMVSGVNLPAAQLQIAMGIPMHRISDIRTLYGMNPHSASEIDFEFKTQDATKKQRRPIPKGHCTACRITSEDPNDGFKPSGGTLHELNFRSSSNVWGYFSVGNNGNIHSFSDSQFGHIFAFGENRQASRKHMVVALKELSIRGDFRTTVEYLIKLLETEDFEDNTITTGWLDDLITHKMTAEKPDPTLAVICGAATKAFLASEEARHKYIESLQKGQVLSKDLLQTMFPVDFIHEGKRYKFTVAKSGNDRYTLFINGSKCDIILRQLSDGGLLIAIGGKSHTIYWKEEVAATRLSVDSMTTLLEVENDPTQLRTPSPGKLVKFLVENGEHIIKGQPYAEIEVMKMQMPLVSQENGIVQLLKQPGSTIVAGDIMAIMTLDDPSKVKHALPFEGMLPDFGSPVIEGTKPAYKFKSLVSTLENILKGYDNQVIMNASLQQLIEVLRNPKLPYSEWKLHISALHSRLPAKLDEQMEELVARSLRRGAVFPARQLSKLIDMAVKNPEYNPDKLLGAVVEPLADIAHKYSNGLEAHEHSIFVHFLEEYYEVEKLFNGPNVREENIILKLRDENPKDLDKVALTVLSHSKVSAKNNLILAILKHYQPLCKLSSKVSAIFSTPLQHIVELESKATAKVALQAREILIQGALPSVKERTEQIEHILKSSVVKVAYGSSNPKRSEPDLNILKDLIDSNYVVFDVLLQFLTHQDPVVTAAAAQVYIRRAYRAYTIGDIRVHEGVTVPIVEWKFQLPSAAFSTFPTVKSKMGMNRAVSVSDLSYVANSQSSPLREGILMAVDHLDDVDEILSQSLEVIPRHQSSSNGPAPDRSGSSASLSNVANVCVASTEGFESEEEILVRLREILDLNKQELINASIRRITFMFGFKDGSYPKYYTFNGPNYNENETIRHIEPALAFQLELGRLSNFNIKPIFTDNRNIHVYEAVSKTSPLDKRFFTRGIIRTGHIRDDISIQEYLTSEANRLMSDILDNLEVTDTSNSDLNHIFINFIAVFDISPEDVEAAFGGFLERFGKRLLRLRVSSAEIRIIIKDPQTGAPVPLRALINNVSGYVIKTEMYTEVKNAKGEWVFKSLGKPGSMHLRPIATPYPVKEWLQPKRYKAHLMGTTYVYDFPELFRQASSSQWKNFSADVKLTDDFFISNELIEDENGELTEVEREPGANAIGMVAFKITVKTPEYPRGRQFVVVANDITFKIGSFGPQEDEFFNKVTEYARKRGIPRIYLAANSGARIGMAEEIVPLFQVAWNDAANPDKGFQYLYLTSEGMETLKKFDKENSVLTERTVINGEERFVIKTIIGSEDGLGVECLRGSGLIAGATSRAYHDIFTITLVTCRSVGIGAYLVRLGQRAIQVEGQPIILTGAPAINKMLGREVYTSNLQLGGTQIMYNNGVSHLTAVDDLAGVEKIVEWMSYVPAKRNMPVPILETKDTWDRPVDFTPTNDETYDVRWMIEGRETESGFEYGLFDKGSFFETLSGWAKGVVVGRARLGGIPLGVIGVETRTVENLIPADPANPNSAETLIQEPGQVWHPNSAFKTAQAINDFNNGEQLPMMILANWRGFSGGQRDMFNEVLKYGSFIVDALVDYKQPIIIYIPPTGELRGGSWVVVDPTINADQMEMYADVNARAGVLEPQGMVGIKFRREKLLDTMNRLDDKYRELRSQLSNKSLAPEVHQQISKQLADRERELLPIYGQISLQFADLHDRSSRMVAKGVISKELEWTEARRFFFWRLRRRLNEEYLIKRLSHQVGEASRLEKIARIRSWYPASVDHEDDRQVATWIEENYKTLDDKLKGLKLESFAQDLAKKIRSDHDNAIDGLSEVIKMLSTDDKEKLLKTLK

SMILES	MIC (C. krusei ATCC 6258) [µg/mL]	IC50 (Fungal ACC2) [nM]	IC50 (Human ACC2) [nM]	MIC [1] [µg/mL]	MIC (C. albicans ATCC 90028) [µg/mL]
COc1ccc(F)cc1[C@H](Cn1c(=O)n([C@@]2(C)CC(=O)N(C)C2)c(=O)c2c(C)c(-n3nccn3)sc21)OCCO [Compound I-123, 3-((S)-1,3-dimethyl-5-oxopyrrolidin-3-yl)-1-((R)-2-(5-fluoro-2-methoxyphenyl)-2-(2-hydroxyethoxy)ethyl)-5-methyl-6-(2H-1,2,3-triazol-2-yl)thieno[2,3-d]pyrimidine-2,4(1H,3H)-dione]	2.1 to 4 (≈ 3.67 to 6.99 µM)	0.7 to 2	10 to 100	2.1 to 4 (≈ 3.67 to 6.99 µM)	2.1 to 4 (≈ 3.67 to 6.99 µM)
COCCO[C@@H](Cn1c(=O)n([C@]2(C)CCCNC2=O)c(=O)c2c(C)c(-n3nccn3)sc21)c1cc(F)ccc1OC [Compound I-124, 1-((R)-2-(5-fluoro-2-methoxyphenyl)-2-(2-methoxy-ethoxy)ethyl)-5-methyl-3-((R)-3-methyl-2-oxopiperidin-3-yl)-6-(2H-1,2,3-triazol-2-yl)thieno[2,3-d]pyrimidine-2,4(1H,3H)-dione]	2.1 to 4 (≈ 3.58 to 6.82 µM)	2 to 10	10 to 100	2.1 to 4 (≈ 3.58 to 6.82 µM)	2.1 to 4 (≈ 3.58 to 6.82 µM)
COCCO[C@@H](Cn1c(=O)n([C@@]2(C)CCCNC2=O)c(=O)c2c(C)c(-n3nccn3)sc21)c1cc(F)ccc1OC [Compound I-125, 1-((R)-2-(5-fluoro-2-methoxyphenyl)-2-(2-methoxy-ethoxy)ethyl)-5-methyl-3-((S)-3-methyl-2-oxopiperidin-3-yl)-6-(2H-1,2,3-triazol-2-yl)thieno[2,3-d]pyrimidine-2,4(1H,3H)-dione]	2.1 to 4 (≈ 3.58 to 6.82 µM)	2 to 10	10 to 100	2.1 to 4 (≈ 3.58 to 6.82 µM)	2.1 to 4 (≈ 3.58 to 6.82 µM)
COc1ccc(F)cc1[C@H](Cn1c(=O)n([C@]2(C)CCCNC2=O)c(=O)c2c(C)c(-n3nccn3)sc21)OCCO [Compound I-126, 1-((R)-2-(5-fluoro-2-methoxyphenyl)-2-(2-hydroxyethoxy)ethyl)-5-methyl-3-((R)-3-methyl-2-oxopiperidin-3-yl)-6-(2H, 1,2,3-triazol-2-yl)thieno[2,3-d]pyrimidine-2,4(1H,3H)-dione]	0.25 to 1 (≈ 0.437 to 1.75 µM)	0.7 to 2	2 to 10	2.1 to 4 (≈ 3.67 to 6.99 µM)	2.1 to 4 (≈ 3.67 to 6.99 µM)
COc1ccc(F)cc1[C@H](Cn1c(=O)n([C@@]2(C)CCCNC2=O)c(=O)c2c(C)c(-n3nccn3)sc21)OCCO [Compound I-127, 1-((R)-2-(5-fluoro-2-methoxyphenyl)-2-(2-hydroxyethoxy)ethyl)-5-methyl-3-((S)-3-methyl-2-oxopiperidin-3-yl)-6-(2H-1,2,3-triazol-2-yl)thieno[2,3-d]pyrimidine-2,4(1H,3H)-dione]	2.1 to 4 (≈ 3.67 to 6.99 µM)	0.7 to 2	10 to 100	2.1 to 4 (≈ 3.67 to 6.99 µM)	2.1 to 4 (≈ 3.67 to 6.99 µM)
COCCO[C@@H](Cn1c(=O)n([C@]2(C)CCCN(C)C2=O)c(=O)c2c(C)c(-n3nccn3)sc21)c1cc(F)ccc1OC [Compound I-128, 3-((R)-1,3-dimethyl-2-oxopiperidin-3-yl)-1-((R)-2-(5-fluoro-2-methoxyphenyl)-2-(2-methoxyethoxy)ethyl)-5-methyl-6-(2H-1,2,3-triazol-2-yl)thieno[2,3-d]pyrimidine-2,4(1H,3H)-dione]	2.1 to 4 (≈ 3.5 to 6.66 µM)	2 to 10	10 to 100	2.1 to 4 (≈ 3.5 to 6.66 µM)	2.1 to 4 (≈ 3.5 to 6.66 µM)
COc1ccc(F)cc1[C@H](Cn1c(=O)n([C@]2(C)CCCN(C)C2=O)c(=O)c2c(C)c(-n3nccn3)sc21)OCCO [Compound I-129, 3-((R)-1,3-dimethyl-2-oxopiperidin-3-yl)-1-((R)-2-(5-fluoro-2-methoxyphenyl)-2-(2-hydroxyethoxy)ethyl)-5-methyl-6-(2H-1,2,3-triazol-2-yl)thieno[2,3-d]pyrimidine-2,4(1H,3H)-dione]	2.1 to 4 (≈ 3.58 to 6.82 µM)	0.7 to 2	10 to 100	2.1 to 4 (≈ 3.58 to 6.82 µM)	2.1 to 4 (≈ 3.58 to 6.82 µM)
COCCO[C@@H](Cn1c(=O)n([C@@]2(C)CCCN(C)C2=O)c(=O)c2c(C)c(-n3nccn3)sc21)c1cc(F)ccc1OC [Compound I-130, 3-((S)-1,3-dimethyl-2-oxopiperidin-3-yl)-1-((R)-2-(5-fluoro-2-methoxyphenyl)-2-(2-methoxyethoxy)ethyl)-5-methyl-6-(2H-1,2,3-triazol-2-yl)thieno[2,3-d]pyrimidine-2,4(1H,3H)-dione]	2.1 to 4 (≈ 3.5 to 6.66 µM)	2 to 10	100 to 1000	2.1 to 4 (≈ 3.5 to 6.66 µM)	2.1 to 4 (≈ 3.5 to 6.66 µM)
